Results reported in patent US12077503B2, “Substituted cyclic amides and their use as herbicides” (FMC CORPORATION, priority 2015, dated 2024).

Key:
Format in all cases: in vivo
[1] = test system: ducksalad (Heteranthera limosa); assay: Test B flooded paddy test; conditions: Heteranthera limosa, 250 g ai/ha, Flood; 0 to 100 scale where 0 is no effect and 100 is complete control; read-out: Ducksalad plant response rating
In short: (§1)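 Percent control, visually estimated after 13–15 d in the greenhouse on a 0–100 basis, compares treated pots with untreated ones; compound was put into paddy water 3 cm above the soil when plants had two leaves.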

[2] = test system: barnyardgrass (Echinochloa crus-galli); assay: Test B flooded paddy test; conditions: Echinochloa crus-galli, 250 g ai/ha, Flood; 0 to 100 scale where 0 is no effect and 100 is complete control; read-out: Barnyardgrass plant response rating
In short: as §1

rice (Oryra sativa) = assay: Test B flooded paddy test; conditions: Oryza sativa, 250 g ai/ha, Flood; 0 to 100 scale where 0 is no effect and 100 is complete control; read-out: Rice plant response rating
In short: as §1

[3] = test system: sedge, umbrella (small-flower umbrella sedge, Cyperus difformis); assay: Test B flooded paddy test; conditions: Cyperus difformis, 250 g ai/ha, Flood; 0 to 100 scale where 0 is no effect and 100 is complete control; read-out: Sedge, Umbrella plant response rating
In short: as §1

[4] = test system: giant foxtail (Setaria faberii); assay: Test A preemergence; conditions: Setaria faberi, pre-emergence, 240 h, 0 to 100 scale where 0 is no effect and 100 is complete control, read-out: Foxtail, Giant plant response rating; for pest or weed control at 31 g/ha: 31 g ai/ha, Preemergence; for pest or weed control at 125 g/ha: 125 g ai/ha, preemergence, approx. 10 d
In short: (§2)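 Preemergence soil spray on seeded pots or post-emergence spray on 1–2 leaf plants, in loam–sand blend. Greenhouse ~10 d. Visual rating 0–100 against untreated plants.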

[5] = test system: barnyardgrass (Echinochloa crus-galli); assay: Test A preemergence; conditions: Echinochloa crus-galli, pre-emergence, 240 h, 0 to 100 scale where 0 is no effect and 100 is complete control, read-out: Barnyardgrass plant response rating; for pest or weed control at 31 g/ha: 31 g ai/ha, Preemergence; for pest or weed control at 125 g/ha: 125 g ai/ha, preemergence, approx. 10 d
In short: as §2

[6] = test system: ragweed (common ragweed, Ambrosia elatior); assay: Test A preemergence; conditions: Ambrosia artemisiifolia, pre-emergence, 240 h, 0 to 100 scale where 0 is no effect and 100 is complete control, read-out: Ragweed plant response rating; for pest or weed control at 31 g/ha: 31 g ai/ha, Preemergence; for pest or weed control at 125 g/ha: 125 g ai/ha, preemergence, approx. 10 d
In short: as §2

Kochia (Kochia scoparia) [7] = assay: Test A preemergence; conditions: Bassia scoparia, pre-emergence, 240 h, 0 to 100 scale where 0 is no effect and 100 is complete control, read-out: Kochia plant response rating; for pest or weed control at 31 g/ha: 31 g ai/ha, Preemergence; for pest or weed control at 125 g/ha: 125 g ai/ha, preemergence, approx. 10 d
In short: as §2

[8] = test system: ryegrass, Italian (Italian ryegrass, Lolium multiflorum); assay: Test A preemergence; conditions: Lolium multiflorum, pre-emergence, 240 h, 0 to 100 scale where 0 is no effect and 100 is complete control, read-out: Ryegrass, Italian plant response rating; for pest or weed control at 31 g/ha: 31 g ai/ha, Preemergence; for pest or weed control at 125 g/ha: 125 g ai/ha, preemergence, approx. 10 d
In short: as §2

[9] = test system: pigweed (Amaranthus retroflexus); assay: Test A preemergence; conditions: Amaranthus retroflexus, pre-emergence, 240 h, 0 to 100 scale where 0 is no effect and 100 is complete control, read-out: Pigweed plant response rating; for pest or weed control at 31 g/ha: 31 g ai/ha, Preemergence; for pest or weed control at 125 g/ha: 125 g ai/ha, preemergence, approx. 10 d
[10] = test system: giant foxtail (Setaria faberii); assay: Test A postemergence; conditions: Setaria faberi, post-emergence, 240 h; for pest or weed control at 125 g/ha: 125 g ai/ha, postemergence, visual injury on 0 to 100 scale (0 no effect, 100 complete control), approx. 10 d, read-out: Foxtail, Giant plant response rating; for pest or weed control at 31 g/ha: Postemergence, 31 g ai/ha, visual injury after approx. 10 d, 0 to 100 scale, 0 no effect, 100 complete control, read-out: Plant response rating, Foxtail, Giant
In short: as §2

[11] = test system: wheat (Triticum aestivum); assay: Test A postemergence; conditions: Triticum aestivum, post-emergence, 240 h; for plant injury at 125 g/ha: 125 g ai/ha, postemergence, visual injury vs untreated controls after approx. 10 d, 0 = no effect, 100 = complete control, read-out: Wheat plant response rating (0 to 100 scale); for plant injury at 31 g/ha: Postemergence, 31 g ai/ha, visual injury after approx. 10 d, 0 to 100 scale, 0 no effect, 100 complete control, read-out: Plant response rating, Wheat
In short: as §2

corn (Zea mays) = assay: Test A postemergence; conditions: Zea mays, post-emergence, 240 h; for plant injury at 125 g/ha: 125 g ai/ha, postemergence, visual injury on 0 to 100 scale (0 no effect, 100 complete control), approx. 10 d, read-out: Corn plant response rating; for Corn plant response rating (crop injury, 0 = no effect, 100 = complete kill) at 31 g/ha: Postemergence, 31 g ai/ha, visual injury after approx. 10 d, 0 to 100 scale, 100 complete control
In short: as §2

[12] = test system: blackgrass (Alopecurus myosuroides); assay: Test A postemergence; conditions: Alopecurus myosuroides, post-emergence, 240 h; for pest or weed control at 125 g/ha: 125 g ai/ha, postemergence, visual injury on 0 to 100 scale (0 no effect, 100 complete control), approx. 10 d, read-out: Blackgrass plant response rating; for pest or weed control at 31 g/ha: Postemergence, 31 g ai/ha, visual injury after approx. 10 d, 0 to 100 scale, 0 no effect, 100 complete control, read-out: Plant response rating, Blackgrass
In short: as §2

[13] = test system: barnyardgrass (Echinochloa crus-galli); assay: Test A postemergence; conditions: Echinochloa crus-galli, post-emergence, 240 h; for pest or weed control at 125 g/ha: 125 g ai/ha, postemergence, visual injury on 0 to 100 scale (0 no effect, 100 complete control), approx. 10 d, read-out: Barnyardgrass plant response rating; for pest or weed control at 31 g/ha: Postemergence, 31 g ai/ha, visual injury after approx. 10 d, 0 to 100 scale, 0 no effect, 100 complete control, read-out: Plant response rating, Barnyardgrass
In short: as §2

[14] = test system: ragweed (common ragweed, Ambrosia elatior); assay: Test A postemergence; conditions: Ambrosia artemisiifolia, post-emergence, 240 h; for pest or weed control at 125 g/ha: 125 g ai/ha, postemergence, visual injury vs untreated controls after approx. 10 d, 0 = no effect, 100 = complete control, read-out: Ragweed plant response rating (0 to 100 scale); for pest or weed control at 31 g/ha: Postemergence, 31 g ai/ha, visual injury after approx. 10 d, 0 to 100 scale, 0 no effect, 100 complete control, read-out: Plant response rating, Ragweed
In short: as §2

[15] = test system: Galium (catchweed bedstraw, Galium aparine); assay: Test A postemergence; conditions: Galium, post-emergence, 240 h; for pest or weed control at 125 g/ha: 125 g ai/ha, postemergence, visual injury on 0 to 100 scale (0 no effect, 100 complete control), approx. 10 d, read-out: Galium plant response rating; for pest or weed control at 31 g/ha: Postemergence, 31 g ai/ha, visual injury after approx. 10 d, 0 to 100 scale, 0 no effect, 100 complete control, read-out: Plant response rating, Galium
In short: as §2

Kochia (Kochia scoparia) [16] = assay: Test A postemergence; conditions: Bassia scoparia, post-emergence, 240 h; for pest or weed control at 125 g/ha: 125 g ai/ha, postemergence, visual injury on 0 to 100 scale (0 no effect, 100 complete control), approx. 10 d, read-out: Kochia plant response rating; for pest or weed control at 31 g/ha: Postemergence, 31 g ai/ha, visual injury after approx. 10 d, 0 to 100 scale, 0 no effect, 100 complete control, read-out: Plant response rating, Kochia
In short: as §2

[17] = test system: ryegrass, Italian (Italian ryegrass, Lolium multiflorum); assay: Test A postemergence; conditions: Lolium multiflorum, post-emergence, 240 h; for pest or weed control at 125 g/ha: 125 g ai/ha, postemergence, visual injury vs untreated controls after approx. 10 d, 0 = no effect, 100 = complete control, read-out: Ryegrass, Italian plant response rating (0 to 100 scale); for pest or weed control at 31 g/ha: Postemergence, 31 g ai/ha, visual injury after approx. 10 d, 0 to 100 scale, 0 no effect, 100 complete control, read-out: Plant response rating, Ryegrass, Italian
In short: as §2

[18] = test system: pigweed (Amaranthus retroflexus); assay: Test A postemergence; conditions: Amaranthus retroflexus, post-emergence, 240 h; for pest or weed control at 125 g/ha: 125 g ai/ha, postemergence, visual injury vs untreated controls after approx. 10 d, 0 = no effect, 100 = complete control, read-out: Pigweed plant response rating (0 to 100 scale); for pest or weed control at 31 g/ha: Postemergence, 31 g ai/ha, visual injury after approx. 10 d, 0 to 100 scale, 0 no effect, 100 complete control, read-out: Plant response rating, Pigweed
In short: as §2

SMILES: CC(O)c1ccccc1NC(=O)C1C(=O)N(C)CC1c1cccc(C(F)(F)F)c1 (stereo not drawn) [Compound 1147]
- pest or weed control at 250 g/ha [1]: 0%
- pest or weed control at 250 g/ha [2]: 0%
- pest or weed control at 250 g/ha (rice (Oryra sativa)): 15%
- pest or weed control at 250 g/ha [3]: 0%
- pest or weed control at 31 g/ha [4]: 0%
- pest or weed control at 125 g/ha [4]: 20%
- pest or weed control at 31 g/ha [5]: 0%
- pest or weed control at 125 g/ha [5]: 20%
- pest or weed control at 31 g/ha [6]: 0%
- pest or weed control at 125 g/ha [6]: 0%
- pest or weed control at 31 g/ha (Kochia (Kochia scoparia) [7]): 0%
- pest or weed control at 125 g/ha (Kochia (Kochia scoparia) [7]): 0%
- pest or weed control at 31 g/ha [8]: 0%
- pest or weed control at 125 g/ha [8]: 0%
- pest or weed control at 31 g/ha [9]: 0%
- pest or weed control at 125 g/ha [9]: 0%
- pest or weed control at 125 g/ha [10]: 0%
- pest or weed control at 31 g/ha [10]: 0%
- plant injury at 125 g/ha [11]: 0%
- plant injury at 31 g/ha [11]: 0%
- plant injury at 125 g/ha (corn (Zea mays)): 0%
- Corn plant response rating (crop injury, 0 = no effect, 100 = complete kill) at 31 g/ha (corn (Zea mays)): 0%
- pest or weed control at 125 g/ha [12]: 0%
- pest or weed control at 31 g/ha [12]: 0%
- pest or weed control at 125 g/ha [13]: 0%
- pest or weed control at 31 g/ha [13]: 0%
- pest or weed control at 125 g/ha [14]: 0%
- pest or weed control at 31 g/ha [14]: 0%
- pest or weed control at 125 g/ha [15]: 0%
- pest or weed control at 31 g/ha [15]: 0%
- pest or weed control at 125 g/ha (Kochia (Kochia scoparia) [16]): 0%
- pest or weed control at 31 g/ha (Kochia (Kochia scoparia) [16]): 0%
- pest or weed control at 125 g/ha [17]: 0%
- pest or weed control at 31 g/ha [17]: 0%
- pest or weed control at 125 g/ha [18]: 0%
- pest or weed control at 31 g/ha [18]: 0%

SMILES: C=C(C)c1ccc([C@H]2CN(C)C(=O)[C@@H]2C(=O)Nc2ccc(F)c(F)c2F)cc1 [Compound 1148]
- pest or weed control at 250 g/ha [1]: 70%
- pest or weed control at 250 g/ha [2]: 50%
- pest or weed control at 250 g/ha (rice (Oryra sativa)): 60%
- pest or weed control at 250 g/ha [3]: 0%
- pest or weed control at 31 g/ha [4]: 90%
- pest or weed control at 125 g/ha [4]: 90%
- pest or weed control at 31 g/ha [5]: 30%
- pest or weed control at 125 g/ha [5]: 90%
- pest or weed control at 31 g/ha [6]: 0%
- pest or weed control at 125 g/ha [6]: 0%
- pest or weed control at 31 g/ha (Kochia (Kochia scoparia) [7]): 0%
- pest or weed control at 125 g/ha (Kochia (Kochia scoparia) [7]): 0%
- pest or weed control at 31 g/ha [8]: 0%
- pest or weed control at 125 g/ha [8]: 20%
- pest or weed control at 31 g/ha [9]: 0%
- pest or weed control at 125 g/ha [9]: 0%
- pest or weed control at 125 g/ha [10]: 80%
- pest or weed control at 31 g/ha [10]: 50%
- plant injury at 125 g/ha [11]: 0%
- plant injury at 31 g/ha [11]: 0%
- plant injury at 125 g/ha (corn (Zea mays)): 0%
- Corn plant response rating (crop injury, 0 = no effect, 100 = complete kill) at 31 g/ha (corn (Zea mays)): 0%
- pest or weed control at 125 g/ha [12]: 20%
- pest or weed control at 31 g/ha [12]: 0%
- pest or weed control at 125 g/ha [13]: 80%
- pest or weed control at 31 g/ha [13]: 50%
- pest or weed control at 125 g/ha [14]: 0%
- pest or weed control at 31 g/ha [14]: 0%
- pest or weed control at 125 g/ha [15]: 40%
- pest or weed control at 31 g/ha [15]: 0%
- pest or weed control at 125 g/ha (Kochia (Kochia scoparia) [16]): 0%
- pest or weed control at 31 g/ha (Kochia (Kochia scoparia) [16]): 0%
- pest or weed control at 125 g/ha [17]: 0%
- pest or weed control at 31 g/ha [17]: 0%
- pest or weed control at 125 g/ha [18]: 20%
- pest or weed control at 31 g/ha [18]: 0%
